As usually defined, the IC50 is the concentration that inhibits the measured activity by half. One may read the MIC as the lowest concentration that inhibits growth of the organism. A word on the inhibition: it is the share of the control response that was lost under treatment.

Assay [1] in a line: Inhibition of Escherichia coli RNA polymerase core enzyme by transcription assay.
A short description of assay [2]: Inhibition of Escherichia coli RNA polymerase by transcription assay.
Assay [3] in a line: Inhibition of Escherichia coli RNA polymerase-RNA polymerase sigma factor RpoD interaction by ELISA.
In assay [4] the test system is Escherichia coli. The assay is described as follows: Ratio of IC50 for Escherichia coli RNA polymerase core enzyme to IC50 for Escherichia coli RNA polymerase holo enzyme.
Assay [5] has as its system Escherichia coli. The assay is described as follows: Antibacterial activity against Escherichia coli expressing TolC mutant. Format: functional.
The nature of assay [6]: Inhibition of Escherichia coli RNA polymerase holo enzyme by transcription assay.
Assay [7] relates to Escherichia coli. The assay is described as follows: Inhibition of Escherichia coli RNA polymerase at 50 uM by transcription assay.
Assay [8] concerns Escherichia coli. The assay is described as follows: Inhibition of Escherichia coli RNA polymerase at 200 uM by transcription assay.
The next assay relates to Staphylococcus aureus. The assay is described as follows: Antibacterial activity against Staphylococcus aureus. The assay is classed as functional.
The test system of another assay is Bacillus subtilis. The assay is described as follows: Antibacterial activity against Bacillus subtilis. Format: functional.
In a further assay the test system is Pseudomonas aeruginosa. The assay is described as follows: Antibacterial activity against Pseudomonas aeruginosa PAO1. The assay is classed as functional.
For assay [9], the system named is Escherichia coli. The assay is described as follows: Antibacterial activity against Escherichia coli K-12. The assay is classed as functional.
Assay [10] concerns Escherichia coli. The assay is described as follows: Induction of resistant frequency in Escherichia coli expressing TolC mutant at 2 times MIC treated for every 3 days. Format: functional, organism-based.
Assay [11] relates to Escherichia coli. The assay is described as follows: Inhibition of Escherichia coli RNA polymerase-RNA polymerase sigma factor RpoD interaction at 10 uM by ELISA. (In an ELISA, binding on a coated surface is turned into a signal by an enzyme label.)

The structures appear in SMILES notation. ≈ marks a conversion by molar mass, not a printed value. Calls of active or inactive are those of the source. The rule behind the calls is not given here.

Take `O=C(Nc1cc(Br)ccc1C(=O)O)c1ccc(-c2ccccc2)cc1`: the IC50 in assay [1] worked out at 39 µM; in [2] (read-out: IC50) it was 28 µM; in assay [3], 68 µM; in [6] it was 27 µM. Further, in the assay with Escherichia coli [4], the Ratio IC50 is 3. This compound also displayed an MIC against Escherichia coli [5] of 2 µg/mL (≈ 5.05 µM).

On to `O=C(Nc1cc(C(F)(F)F)ccc1C(=O)O)c1ccc(-c2ccccc2)cc1`, for which, in assay [2] (read-out: IC50), the IC50 stood at 27 µM. Also, inhibition of growth with Escherichia coli [5] (MIC) required 5 µg/mL (≈ 13 µM).

`N#Cc1ccc(NC(=O)c2ccc(-c3ccccc3)cc2)c(C(=O)O)c1` gave an MIC against Escherichia coli [5] of 7 µg/mL (≈ 20.4 µM). Moreover, in the assay with Escherichia coli [7], the inhibition amounted to 23%.

For the compound `O=C(Nc1ccccc1C(=O)O)c1cccc(Oc2ccccc2)c1`, the inhibition in the assay with Escherichia coli [8] was found to be 23%. In the assay on Escherichia coli [5], this compound returned a minimal inhibitory concentration (MIC) of 9 µg/mL (≈ 27 µM).

Regarding `O=C(Nc1c(Cl)cccc1C(=O)O)c1ccc(-c2ccccc2)cc1`, in assay [2], the IC50 result was “Not Active”. The same compound registered an MIC with Escherichia coli [5] of 55 µg/mL (≈ 156 µM).

With `O=C(Nc1cc(F)ccc1C(=O)O)c1ccc(-c2ccccc2)c(Oc2ccccc2)c1`, the MIC against Staphylococcus aureus was 17 µg/mL (≈ 39.8 µM); in the assay on Bacillus subtilis, above 25 µg/mL; with Pseudomonas aeruginosa, above 25 µg/mL; in the assay with Escherichia coli [5] it was above 25 µg/mL; with Escherichia coli [9] it was above 25 µg/mL. For the same compound, in assay [2] (read-out: IC50), the IC50 amounted to 13 µM.

Regarding `O=C(Nc1ccc(Br)cc1C(=O)O)c1cccc(Cc2ccccc2)c1`, the IC50 in assay [2] (read-out: IC50) was found to be 37 µM. The MIC against Escherichia coli [5] was 2 µg/mL (≈ 4.87 µM).

Regarding `O=C(Nc1cc(F)ccc1C(=O)O)c1ccc(-c2ccccc2)cc1`, the IC50 in [2] (read-out: IC50) was determined as 98 µM. Besides, in the assay on Escherichia coli [5], it took 4 µg/mL (≈ 11.9 µM) to inhibit growth (MIC).

With `C=CCN1C(=O)/C(=C/c2ccc(-c3cccc(C(=O)O)c3)o2)SC1=S`, the IC50 amounted to 57 µM in assay [1], 30 µM in assay [3] and 38 µM in assay [6]. For the same compound, the Ratio IC50 in the assay on Escherichia coli [4] worked out at 2.6.

For the compound `CO[C@H]1/C=C/O[C@@]2(C)Oc3c(C)c(O)c4c(O)c(c(/C=N/N5CCN(C)CC5)c(O)c4c3C2=O)NC(=O)/C(C)=C\C=C\[C@H](C)[C@H](O)[C@@H](C)[C@@H](O)[C@@H](C)[C@H](OC(C)=O)[C@@H]1C` [RIFAMPIN], the MIC in the assay on Staphylococcus aureus was found to be 0.02 µg/mL (≈ 0.0243 µM); in the assay on Bacillus subtilis it was 5 µg/mL (≈ 6.08 µM); against Pseudomonas aeruginosa, 13 µg/mL (≈ 15.8 µM); against Escherichia coli [5], 10 µg/mL (≈ 12.2 µM); in the assay on Escherichia coli [9] it was 7 µg/mL (≈ 8.51 µM). Besides, the IC50 in [1] is 0.016 µM; in [2] (read-out: IC50), 0.03 µM; in [6] it was 0.027 µM. Also, the outcome in the assay with Escherichia coli [10] was Active. The inhibition in the assay with Escherichia coli [11] is below 5%. For the same compound, in the assay with Escherichia coli [4], the Ratio IC50 stood at 1.

Consider `COc1ccc(NC(=O)c2ccc(-c3ccccc3)cc2)c(C(=O)O)c1`, for which the inhibition in the assay on Escherichia coli [8] amounted to 52%. The MIC against Escherichia coli [5] came to 8 µg/mL (≈ 23 µM).

As for `O=C(Nc1ccc(Br)cc1C(=O)O)c1ccc(-c2ccccc2)cc1`, in [2] (read-out: IC50), the IC50 came out at 31 µM. Moreover, in the assay on Escherichia coli [5], the MIC came out at 3 µg/mL (≈ 7.57 µM).

In the assay on Escherichia coli [8], `O=C(Nc1ccccc1C(=O)O)c1ccc(-c2ccccc2)cc1` displayed an inhibition of 31%. The compound further gave an MIC against Escherichia coli [5] of 13 µg/mL (≈ 41 µM).

Turning to `O=C(Nc1ccc(C(F)(F)F)cc1C(=O)O)c1ccc(-c2ccccc2)cc1`, the MIC was 5 µg/mL (≈ 13 µM) in the assay with Staphylococcus aureus; 4 µg/mL (≈ 10.4 µM) in the assay with Bacillus subtilis; above 50 µg/mL against Pseudomonas aeruginosa; 2 µg/mL (≈ 5.19 µM) against Escherichia coli [5]; above 50 µg/mL against Escherichia coli [9]. The IC50 turned out to be 67 µM in [1], 28 µM in [2] (read-out: IC50), 60 µM in assay [3] and 28 µM in assay [6]. In the assay with Escherichia coli [10], the result was Active. For the same compound, the Ratio IC50 in the assay with Escherichia coli [4] amounted to 4.

For the compound `CCCN(CCC)S(=O)(=O)c1ccc(C(=O)Nc2cc3ccccc3cc2C(=O)O)cc1`, the IC50 in assay [1] worked out at 81 µM; in assay [3] it was 97 µM; in assay [6] it was 52 µM. Besides, the Ratio IC50 in the assay with Escherichia coli [4] is 2.6.

In the case of `Cc1ccc(NC(=O)c2ccc(-c3ccccc3)cc2)c(C(=O)O)c1`, the half-inhibitory concentration (IC50) in assay [2] (read-out: IC50) is 139 µM. The compound further gave an MIC in the assay with Escherichia coli [5] of 7 µg/mL (≈ 21.1 µM).

As to `O=C(Nc1ccc(F)cc1C(=O)O)c1cccc(Oc2ccccc2)c1`, the MIC against Staphylococcus aureus was 48 µg/mL (≈ 137 µM); against Bacillus subtilis it was 4 µg/mL (≈ 11.4 µM); against Pseudomonas aeruginosa, above 100 µg/mL; with Escherichia coli [5], 5 µg/mL (≈ 14.2 µM); with Escherichia coli [9], above 100 µg/mL. The IC50 in assay [2] (read-out: IC50) was 98 µM.

In the case of `O=C(Nc1cc([N+](=O)[O-])ccc1C(=O)O)c1ccc(-c2ccccc2)cc1`, the IC50 in assay [2] (read-out: IC50) is 36 µM. Further, in the assay with Escherichia coli [5], the MIC was above 25 µg/mL.

With `O=C(Nc1ccccc1C(=O)O)c1ccccc1`, the IC50 entry in [2] is “Not Active”. The same compound came in with an MIC in the assay on Escherichia coli [5] above 100 µg/mL.

The record behind these values is ChEMBL document CHEMBL2439977, “Discovery of novel bacterial RNA polymerase inhibitors: pharmacophore-based virtual screening and hit optimization” (J Med Chem, 2013).
